Laboratory results: patent US20200163984A1, “USE OF ISOVALERYL SPIRAMYCIN I, II AND/OR III IN MANUFACTURING MEDICAMENT FOR TREATING AND/OR PREVENTING TUMOR, AND MEDICAMENT” (SHENYANG FUYANG PHARMACEUTICAL TECHNOLOGY CO., LTD., priority 2017, published 2020)
Like-named read-outs stand apart in the source and are kept apart here.

Key:
[1] = tested on: transplanted tumor of human non-small cell lung cancer cell H1299
Procedure: (§1) Then cell concentration was adjusted to 1×10^7/ml with matrigel, then each nude mouse was inoculated subcutaneously with 0.2 ml of cells at its right armpit and recorded as the first day of inoculation. When the tumor grows to be greater than or equal to 100 mm^3, the mice were randomly divided into 11 groups with 6 mice in each group: isovaleryl spiramycin I groups with doses of 25, 50 and 100 mg/kg, isovaleryl spiramycin II groups with doses of 25, 50 and 100 mg/kg, and isovaleryl spiramycin III groups with doses of 25, 50 and 100 mg/kg. Each group was continuously administered intragastrically for 30 days with a dose of 20 ml/kg. The mice were sacrificed the next day after drug withdrawal and the indicators were tested. The long diameter and short diameter of the tumor, and the body weight of each mouse were recorded every 3 days from drug administration to nude mouse sacrifice.
(§2) The body weight of the nude mice and the long diameter (a) and short diameter (b) of the transplanted tumor were measured every 3 days, and the tumor volume (v), relative tumor volume (RTV) and relative tumor proliferation rate (T/C) are calculated respectively according to the following formulas, wherein V=a×b^2/2; RTV=V/V0 (V0 is the tumor volume before administration, V is the tumor volume before sacrifice), and T/C (%)=treatment group RTV/model control group RTV×100%.
(§3) Each mouse was weighed and sacrificed. After the tumor was completely stripped off from the body of the mouse, the non-tumor tissues such as blood stains and fat were removed to weigh the tumor and calculate the tumor growth inhibition rate. The average tumor weight of each group of mice is used as an indicator of efficacy. Tumor growth inhibition rate (%)=(1−the average tumor weight of the treatment group/the average tumor weight of the model group)×100%.

[2] = tested on: transplanted tumor of human glioblastoma cell A172; details: for Tumor Volume (mm3) (d 1): d1
Procedure: as §1, with “a model group, a temozolomide group, […], […], […]” for “isovaleryl spiramycin I groups with doses of 25, 50 and 100 mg/kg, isovaleryl spiramycin II groups with doses of 25, 50 and 100 mg/kg, and isovaleryl spiramycin III groups with doses of 25, 50 and 100 mg/kg.”
as §2, §3

[3] = tested on: transplanted tumor of human renal clear cell adenocarcinoma cell 786-O; experiment: 786-O transplanted tumor in nude mice; details: for Tumor Volume (mm3) (d 1): d1
Procedure: as §1, with “786-O cells in a logarithmic growth phase were taken and subjected to a trypan blue exclusion experiment showing that the cell viability was more than 95%, then the cells were subjected to trypsinization, centrifugation, and supernatant removal. Then” for “Then”, “group: a model group, a cyclophosphamide group,” for “group:”
as §2, §3

[4] = H1299, 25 mg/kg (low dose) i.g. 30 days
[5] = H1299, 50 mg/kg (medium dose) i.g. 30 days
[6] = H1299, 100 mg/kg (high dose) i.g. 30 days
[7] = A172, high dose (100 mg/kg in method) i.g. 30 days
[8] = A172, low dose (25 mg/kg in method) i.g. 30 days
[9] = A172, medium dose (50 mg/kg in method) i.g. 30 days
[10] = 786-O, high dose (100 mg/kg in method) i.g. 30 days
[11] = 786-O, low dose (25 mg/kg in method) i.g. 30 days
[12] = 786-O, medium dose (50 mg/kg in method) i.g. 30 days

- mouse weight compared with the model group ([1]; mouse, in vivo): no significant changes
- mouse weight compared with the model group ([2]; mouse, in vivo): no significant changes
- mouse weight compared with the model group ([3]; mouse, in vivo): no significant changes
Compound: COC1C(OC(C)=O)CC(=O)OC(C)CC=CC=CC(OC2CCC(N(C)C)C(C)O2)C(C)CC(CC=O)C1OC1OC(C)C(OC2CC(C)(O)C(OC(=O)CC(C)C)C(C)O2)C(N(C)C)C1O (stereo not drawn) [Isovaleryl spiramycin II, isovaleryl spiramycin II]
- Inhibition Rate (tumor growth inhibition rate) [1, 4]: 17.32%
- Relative Tumor Proliferation Rate (T/C) [1, 4]: 83.01%
- Relative Tumor Volume (RTV) [1, 4]: 10.64 ± 0.92
- Tumor Volume (d 1) [1, 4]: 139.13 ± 12.26 mm3
- Tumor Volume (d 30) [1, 4]: 1474.57 ± 104.54 mm3
- Tumor Weight [1, 4]: 1.44 ± 0.29 g
- Inhibition Rate (tumor growth inhibition rate) [1, 5]: 44.21%
- Relative Tumor Proliferation Rate (T/C) [1, 5]: 46.94%
- Relative Tumor Volume (RTV) [1, 5]: 6.02 ± 1.07
- Tumor Volume (d 1) [1, 5]: 138.94 ± 20.16 mm3
- Tumor Volume (d 30) [1, 5]: 821.57 ± 90.36 mm3
- Tumor Weight [1, 5]: 0.97 ± 0.16 g
- Inhibition Rate (tumor growth inhibition rate) [1, 6]: 58.37%
- Relative Tumor Proliferation Rate (T/C) [1, 6]: 36.86%
- Relative Tumor Volume (RTV) [1, 6]: 4.72 ± 1.57
- Tumor Volume (d 1) [1, 6]: 136.94 ± 14.60 mm3
- Tumor Volume (d 30) [1, 6]: 634.05 ± 180.18 mm3
- Tumor Weight [1, 6]: 0.73 ± 0.25 g
- tumor volume and relative tumor volume compared with the model group ([1]; H1299, low, medium and high doses, P<0.05): significantly lower
- Relative Tumor Proliferation Rate (T/C) [2, 7]: 42.18%
- tumor growth inhibition rate [2, 7]: 40.01%
- Relative Tumor Proliferation Rate (T/C) [2, 8]: 74.24%
- tumor growth inhibition rate [2, 8]: 10.85%
- tumor volume and relative tumor volume compared with the model group ([2]; A172, low, medium and high doses, P<0.05): significantly lower
- Relative Tumor Proliferation Rate (T/C) [2, 9]: 50.59%
- tumor growth inhibition rate [2, 9]: 15.71%
- Inhibition Rate (%) ([2]; A172 nude mice, 12.5 mg/kg): 10.85%
- Relative Tumor Proliferation Rate (T/C) ([2]; A172 nude mice, 12.5 mg/kg): 74.24%
- Relative Tumor Volume (RTV) ([2]; A172 nude mice, 12.5 mg/kg): 14.73 ± 1.33
- Tumor Weight ([2]; A172 nude mice, 12.5 mg/kg): 1.24 ± 0.12 g
- Tumor Volume (mm3) (d 1) ([2]; A172 nude mice, 12.5 mg/kg): 123.39 ± 11.22 mm3
- Tumor Volume (mm3) (d30) ([2]; A172 nude mice, 12.5 mg/kg): 1525.41 ± 255.74 mm3
- Inhibition Rate (%) ([2]; A172 nude mice, 25 mg/kg): 15.71%
- Relative Tumor Proliferation Rate (T/C) ([2]; A172 nude mice, 25 mg/kg): 50.59%
- Relative Tumor Volume (RTV) ([2]; A172 nude mice, 25 mg/kg): 14.31 ± 0.98
- Tumor Weight ([2]; A172 nude mice, 25 mg/kg): 1.17 ± 0.10 g
- Tumor Volume (mm3) (d 1) ([2]; A172 nude mice, 25 mg/kg): 115.96 ± 11.42 mm3
- Tumor Volume (mm3) (d30) ([2]; A172 nude mice, 25 mg/kg): 984.26 ± 197.97 mm3
- Inhibition Rate (%) ([2]; A172 nude mice, 50 mg/kg): 40.01%
- Relative Tumor Proliferation Rate (T/C) ([2]; A172 nude mice, 50 mg/kg): 42.18%
- Relative Tumor Volume (RTV) ([2]; A172 nude mice, 50 mg/kg): 12.88 ± 1.54
- Tumor Weight ([2]; A172 nude mice, 50 mg/kg): 0.84 ± 0.12 g
- Tumor Volume (mm3) (d 1) ([2]; A172 nude mice, 50 mg/kg): 120.28 ± 10.53 mm3
- Tumor Volume (mm3) (d30) ([2]; A172 nude mice, 50 mg/kg): 851.14 ± 215.31 mm3
- Body Weight (g) (d1) ([2]; mouse, in vivo, 12.5 mg/kg): 21.36 ± 0.67 g
- Body Weight (g) (d30) ([2]; mouse, in vivo, 12.5 mg/kg): 21.36 ± 0.87 g
- Body Weight (g) (d1) ([2]; mouse, in vivo, 25 mg/kg): 21.10 ± 0.62 g
- Body Weight (g) (d30) ([2]; mouse, in vivo, 25 mg/kg): 21.30 ± 0.89 g
- Body Weight (g) (d1) ([2]; mouse, in vivo, 50 mg/kg): 21.08 ± 0.74 g
- Body Weight (g) (d30) ([2]; mouse, in vivo, 50 mg/kg): 20.97 ± 0.68 g
- Inhibition Rate (%) ([3]; 786-O nude mice, 25 mg/kg): 19.69%
- Relative Tumor Proliferation Rate (T/C) ([3]; 786-O nude mice, 25 mg/kg): 76.92%
- Relative Tumor Volume (RTV) ([3]; 786-O nude mice, 25 mg/kg): 14.62 ± 1.93
- Tumor Weight ([3]; 786-O nude mice, 25 mg/kg): 1.72 ± 0.27 g
- Tumor Volume (mm3) (d 1) ([3]; 786-O nude mice, 25 mg/kg): 96.82 ± 8.52 mm3
- Tumor Volume (mm3) (d30) ([3]; 786-O nude mice, 25 mg/kg): 1415.80 ± 201.11 mm3
- Inhibition Rate (%) ([3]; 786-O nude mice, 50 mg/kg): 41.09%
- Relative Tumor Proliferation Rate (T/C) ([3]; 786-O nude mice, 50 mg/kg): 53.61%
- Relative Tumor Volume (RTV) ([3]; 786-O nude mice, 50 mg/kg): 10.19 ± 2.62
- Tumor Weight ([3]; 786-O nude mice, 50 mg/kg): 1.26 ± 0.31 g
- Tumor Volume (mm3) (d 1) ([3]; 786-O nude mice, 50 mg/kg): 96.82 ± 8.52 mm3
- Tumor Volume (mm3) (d30) ([3]; 786-O nude mice, 50 mg/kg): 982.68 ± 265.02 mm3
- Inhibition Rate (%) ([3]; 786-O nude mice, 100 mg/kg): 60.00%
- Relative Tumor Proliferation Rate (T/C) ([3]; 786-O nude mice, 100 mg/kg): 35.74%
- Relative Tumor Volume (RTV) ([3]; 786-O nude mice, 100 mg/kg): 6.79 ± 1.65
- Tumor Weight ([3]; 786-O nude mice, 100 mg/kg): 0.85 ± 0.16 g
- Tumor Volume (mm3) (d 1) ([3]; 786-O nude mice, 100 mg/kg): 103.26 ± 9.71 mm3
- Tumor Volume (mm3) (d30) ([3]; 786-O nude mice, 100 mg/kg): 701.57 ± 127.91 mm3
- Relative Tumor Proliferation Rate (T/C) [3, 10]: 35.74%
- tumor growth inhibition rate [3, 10]: 60.00%
- Relative Tumor Proliferation Rate (T/C) [3, 11]: 76.92%
- tumor growth inhibition rate [3, 11]: 19.69%
- tumor volume and relative tumor volume compared with the model group ([3]; 786-O, low, medium and high doses, P<0.05): significantly lower
- Relative Tumor Proliferation Rate (T/C) [3, 12]: 53.61%
- tumor growth inhibition rate [3, 12]: 41.09%
- Body Weight (g) (d1) ([3]; mouse, in vivo, 25 mg/kg): 22.05 ± 0.71 g
- Body Weight (g) (d30) ([3]; mouse, in vivo, 25 mg/kg): 23.33 ± 0.54 g
- Body Weight (g) (d1) ([3]; mouse, in vivo, 50 mg/kg): 22.42 ± 0.54 g
- Body Weight (g) (d30) ([3]; mouse, in vivo, 50 mg/kg): 23.42 ± 0.50 g
- Body Weight (g) (d1) ([3]; mouse, in vivo, 100 mg/kg): 22.33 ± 0.41 g
- Body Weight (g) (d30) ([3]; mouse, in vivo, 100 mg/kg): 23.45 ± 0.91 g
